Measurements as given in ChEMBL document CHEMBL4483862, “Open-source discovery of chemical leads for next-generation chemoprotective antimalarials” (2018).

Test system: Plasmodium berghei
Experiment: Luciferase/luciferin-expressing antifolate-resistant parasites were used to infect a culture of HepG2 cells that were pre-incubated with compounds. Infected hepatocytes emit light due to the luciferase reaction. Assay results are presented as the percent inhibition of light emission compared to control. […]
Format: functional
Conditions: sporozoite; for IC90: read-out: LUCIFERASE INFECTION ASSAY - IC90

`Cc1ccc(C(=O)Nc2nc(-c3ccccn3)cs2)cc1S(=O)(=O)N1CCOCC1` was tested, and the IC50 (HEPG2TOX_HILL_SLOPE 1.67, HEPG2TOX_R_SQUARED 0.851, PBLUC_HILL_SLOPE 9.71, PBLUC_R_SQUARED 0.0304, read-out: LUCIFERASE INFECTION ASSAY - IC50) was 7.83 µM and the IC90 was 9.81 µM.
In the case of `COc1ccc(-c2csc3ncnc(Sc4nnc(-c5cccc(C)c5)n4CC(N)=O)c23)cc1`, the IC50 (HEPG2TOX_HILL_SLOPE 1.67, 2.83, HEPG2TOX_R_SQUARED 0.956, 0.971, PBLUC_HILL_SLOPE 8.88, 0.995, PBLUC_R_SQUARED 0.771, 0.637, read-out: LUCIFERASE INFECTION ASSAY - IC50) is reported as 0.702 µM and the IC90 is reported as 2.23 µM.
Work on `CNc1snc(C)c1C(=O)NCc1csc(-c2ccccc2)n1` yielded an IC50 (HEPG2TOX_HILL_SLOPE 1.65, HEPG2TOX_R_SQUARED 0.956, PBLUC_HILL_SLOPE 1.96, PBLUC_R_SQUARED 0.757, read-out: LUCIFERASE INFECTION ASSAY - IC50) of 1.53 µM and an IC90 of 4.69 µM.
`CNc1nc2cnc(Nc3cccc(Cl)c3)cc2n1Cc1ccco1` was tested, and the IC50 (HEPG2TOX_HILL_SLOPE 1.66, HEPG2TOX_R_SQUARED 0.976, PBLUC_HILL_SLOPE 2.05, PBLUC_R_SQUARED 0.683, read-out: LUCIFERASE INFECTION ASSAY - IC50) was 3.63 µM and the IC90 was over 10 µM.
`COc1ccc(NS(=O)(=O)c2cc(NC(=O)c3ccsc3)ccc2Cl)cc1` gave an IC50 (HEPG2TOX_HILL_SLOPE 1.65, HEPG2TOX_R_SQUARED 0.932, PBLUC_HILL_SLOPE 10.6, PBLUC_R_SQUARED 0.586, read-out: LUCIFERASE INFECTION ASSAY - IC50) of 0.34 µM and an IC90 of 0.419 µM.
`N#C/C(=N\Nc1cccc(C(F)(F)F)c1)C(=O)C1CC1` gave an IC50 (HEPG2TOX_HILL_SLOPE 1.67, HEPG2TOX_R_SQUARED 0.925, PBLUC_HILL_SLOPE 4.09, PBLUC_R_SQUARED 0.467, read-out: LUCIFERASE INFECTION ASSAY - IC50) of 6.27 µM and an IC90 of 10.7 µM.
`COc1ccc(C(=O)NN(C)c2nc3ccccc3nc2C(F)(F)F)cc1` was tested, and the IC50 (HEPG2TOX_HILL_SLOPE 1.65, HEPG2TOX_R_SQUARED 0.987, PBLUC_HILL_SLOPE 2.07, PBLUC_R_SQUARED 0.843, read-out: LUCIFERASE INFECTION ASSAY - IC50) was 1.49 µM and the IC90 was 4.32 µM.
In the case of `COc1ccc(-n2nc(C)c3c2NC(=O)CC3c2ccc3c(c2)OCO3)cc1` (configuration not stated), the IC50 (HEPG2TOX_HILL_SLOPE 1.66, HEPG2TOX_R_SQUARED 0.931, PBLUC_HILL_SLOPE 1.06, PBLUC_R_SQUARED 0.555, read-out: LUCIFERASE INFECTION ASSAY - IC50) is reported as 1.33 µM and the IC90 is reported as over 8.74 µM.
With `CCNc1ccc(S(=O)(=O)C(F)(F)F)cc1NC(=O)/C=C/c1ccc(OC)c(OC)c1` the IC50 (HEPG2TOX_HILL_SLOPE 1.67, 1.94, HEPG2TOX_R_SQUARED 0.906, 0.973, PBLUC_HILL_SLOPE 2.77, PBLUC_R_SQUARED 0.318, read-out: LUCIFERASE INFECTION ASSAY - IC50) was 7.07 µM and the IC90 was over 10 µM.
Work on `Cc1nn(Cc2ccccc2)c(Cl)c1C(=O)Nc1nnc(-c2ccccc2)o1` yielded an IC50 (HEPG2TOX_HILL_SLOPE 1.65, HEPG2TOX_R_SQUARED 0.7, PBLUC_HILL_SLOPE 2.41, 3.47, PBLUC_R_SQUARED 0.702, 0.681, read-out: LUCIFERASE INFECTION ASSAY - IC50) of 1.84 µM and an IC90 of 4.08 µM.
Compound `CC(=O)c1c(C)[nH]c(C(=O)OCC(=O)/C=C2\N(C)c3ccccc3C2(C)C)c1C` has an IC50 (HEPG2TOX_HILL_SLOPE 1.65, HEPG2TOX_R_SQUARED 0.38, PBLUC_HILL_SLOPE 17.8, PBLUC_R_SQUARED 0.202, read-out: LUCIFERASE INFECTION ASSAY - IC50) of 9.63 µM and an IC90 of over 10 µM.
`CC(C)C(Nc1ccc(C(F)(F)F)cc1Cl)C(=O)Nc1ccc(-n2cncn2)nc1` (configuration not stated) was tested, and the IC50 (HEPG2TOX_HILL_SLOPE 1.66, HEPG2TOX_R_SQUARED 0.94, PBLUC_HILL_SLOPE 0.872, PBLUC_R_SQUARED 0.779, read-out: LUCIFERASE INFECTION ASSAY - IC50) was 2.14 µM and the IC90 was over 10 µM.
In the case of `CC(C)c1cccc(NS(=O)(=O)c2c[nH]c(C(=O)N3CCCC3)c2)c1`, the IC50 (HEPG2TOX_HILL_SLOPE 1.65, HEPG2TOX_R_SQUARED 0.259, read-out: LUCIFERASE INFECTION ASSAY - IC50) is reported as over 10 µM and the IC90 is reported as over 10 µM.
In the case of `Cc1ccc(-n2c(C)cc(C(=O)COC(=O)c3[nH]nc4ccccc34)c2C)cc1`, the IC50 (HEPG2TOX_HILL_SLOPE 1.65, HEPG2TOX_R_SQUARED 0.879, read-out: LUCIFERASE INFECTION ASSAY - IC50) is reported as over 10 µM and the IC90 is reported as over 10 µM.
With `CCn1c2ccccc2c2cc(NC(=O)C3CCCN(c4ncccn4)C3)ccc21` (configuration not stated) the IC50 (HEPG2TOX_HILL_SLOPE 1.64, HEPG2TOX_R_SQUARED 0.977, PBLUC_HILL_SLOPE 1.41, PBLUC_R_SQUARED 0.865, read-out: LUCIFERASE INFECTION ASSAY - IC50) was 0.477 µM and the IC90 was 2.28 µM.
For `COc1cccc(-c2nc(-c3ccc(O)cc3O)cs2)c1OC`, the IC50 (HEPG2TOX_HILL_SLOPE 1.65, HEPG2TOX_R_SQUARED 0.767, read-out: LUCIFERASE INFECTION ASSAY - IC50) was over 10 µM and the IC90 was over 10 µM.
`O=C(c1ccco1)N1CCc2nc(NCc3cccc(Oc4ccccc4)c3)ncc2C1` gave an IC50 (HEPG2TOX_HILL_SLOPE 1.64, HEPG2TOX_R_SQUARED 0.989, PBLUC_HILL_SLOPE 13.2, PBLUC_R_SQUARED 0.473, read-out: LUCIFERASE INFECTION ASSAY - IC50) of 2.53 µM and an IC90 of 2.99 µM.
In the case of `O=C1CSC(=N/N=C2\SC(CC(=O)Nc3ccc(Br)cc3)C(=O)N2Cc2ccco2)N1` (configuration not stated), the IC50 (HEPG2TOX_HILL_SLOPE 1.67, HEPG2TOX_R_SQUARED 0.878, PBLUC_HILL_SLOPE 0.95, PBLUC_R_SQUARED 0.607, read-out: LUCIFERASE INFECTION ASSAY - IC50) is reported as 5.04 µM and the IC90 is reported as over 10 µM.
In the case of `Cc1cc(O)cc2c1C(=O)/C(=C/c1cc(Cl)cc3c1OCOC3)O2`, the IC50 (HEPG2TOX_HILL_SLOPE 1.65, HEPG2TOX_R_SQUARED 0.863, PBLUC_HILL_SLOPE 8.6, PBLUC_R_SQUARED 0.504, read-out: LUCIFERASE INFECTION ASSAY - IC50) is reported as 8.66 µM and the IC90 is reported as over 9.57 µM.
With `CC(NC(=O)Cc1ccc(-c2ccccc2)cc1)c1cccs1` (configuration not stated) the IC50 (HEPG2TOX_HILL_SLOPE 1.66, HEPG2TOX_R_SQUARED 0.927, PBLUC_HILL_SLOPE 1.26, PBLUC_R_SQUARED 0.823, read-out: LUCIFERASE INFECTION ASSAY - IC50) was 1.64 µM and the IC90 was 9.4 µM.
`COc1cc(/C=C(\C#N)c2ccc(C)cc2)cc(OC)c1OC` gave an IC50 (HEPG2TOX_HILL_SLOPE 1.64, HEPG2TOX_R_SQUARED 0.962, PBLUC_HILL_SLOPE 4.59, PBLUC_R_SQUARED 0.528, read-out: LUCIFERASE INFECTION ASSAY - IC50) of 2.82 µM and an IC90 of 4.54 µM.
Work on `Cc1cc(C)n(-c2ccc(CN3c4ccc(S(N)(=O)=O)cc4CC3C)cc2)n1` (configuration not stated) yielded an IC50 (HEPG2TOX_HILL_SLOPE 1.67, HEPG2TOX_R_SQUARED 0.825, PBLUC_HILL_SLOPE 15.8, PBLUC_R_SQUARED 0.537, read-out: LUCIFERASE INFECTION ASSAY - IC50) of 1.34 µM and an IC90 of 1.54 µM.
Compound `CCOc1ccc(CCC2CCN(C(=O)Cn3c(=O)[nH]c(=O)c4ccccc43)CC2)cc1` has an IC50 (HEPG2TOX_HILL_SLOPE 1.65, HEPG2TOX_R_SQUARED 0.957, PBLUC_HILL_SLOPE 2.43, PBLUC_R_SQUARED 0.244, read-out: LUCIFERASE INFECTION ASSAY - IC50) of 5.37 µM and an IC90 of over 10 µM.
For `COc1cccc(Nc2ncc(C(=O)c3cccc(-c4cccnc4)c3)[nH]2)c1`, the IC50 (HEPG2TOX_HILL_SLOPE 1.65, HEPG2TOX_R_SQUARED 0.891, PBLUC_HILL_SLOPE 14.3, PBLUC_R_SQUARED 0.795, read-out: LUCIFERASE INFECTION ASSAY - IC50) was 0.322 µM and the IC90 was 0.376 µM.
`COc1ccc(-c2cc(NS(=O)(=O)c3cccc(F)c3)n(-c3ccc(Cl)c(Cl)c3)n2)cc1` gave an IC50 (HEPG2TOX_HILL_SLOPE 1.65, HEPG2TOX_R_SQUARED 0.946, PBLUC_HILL_SLOPE 2.05, PBLUC_R_SQUARED 0.116, read-out: LUCIFERASE INFECTION ASSAY - IC50) of 2.95 µM and an IC90 of over 6.7 µM.
`COc1ccc(CNc2nc3cnc(Nc4cccc(Cl)c4)cc3n2C)cc1OC` showed an IC50 (HEPG2TOX_HILL_SLOPE 1.65, HEPG2TOX_R_SQUARED 0.962, PBLUC_HILL_SLOPE 14.9, PBLUC_R_SQUARED 0.209, read-out: LUCIFERASE INFECTION ASSAY - IC50) of 3.38 µM and an IC90 of 3.92 µM.
In the case of `Cc1cc(NC(=O)c2cc(-c3ccc(Br)cc3)nc3ccccc23)n(-c2ccc([N+](=O)[O-])cc2)n1`, the IC50 (HEPG2TOX_HILL_SLOPE 1.65, HEPG2TOX_R_SQUARED 0.917, PBLUC_HILL_SLOPE 13.2, PBLUC_R_SQUARED 0.485, read-out: LUCIFERASE INFECTION ASSAY - IC50) is reported as 0.991 µM and the IC90 is reported as 1.17 µM.
Work on `CCOc1ccc(S(=O)(=O)N(Cc2nnc(-c3cccs3)o2)c2ccccc2OC)cc1` yielded an IC50 (HEPG2TOX_HILL_SLOPE 1.67, HEPG2TOX_R_SQUARED 0.357, PBLUC_HILL_SLOPE 2.18, PBLUC_R_SQUARED 0.1, read-out: LUCIFERASE INFECTION ASSAY - IC50) of 6.59 µM and an IC90 of over 10 µM.
Work on `COc1ccc(CC(=O)N2CCN(C)c3nc4ccccc4nc32)cc1F` yielded an IC50 (HEPG2TOX_HILL_SLOPE 1.64, HEPG2TOX_R_SQUARED 0.943, PBLUC_HILL_SLOPE 1.87, PBLUC_R_SQUARED 0.437, read-out: LUCIFERASE INFECTION ASSAY - IC50) of 2.96 µM and an IC90 of 9.57 µM.
`COc1ccc(N(CC(=O)Nc2ccc(Cl)cc2Cl)S(=O)(=O)c2cccs2)cc1` showed an IC50 (HEPG2TOX_HILL_SLOPE 1.66, HEPG2TOX_R_SQUARED 0.962, PBLUC_HILL_SLOPE 19.1, PBLUC_R_SQUARED 0.554, read-out: LUCIFERASE INFECTION ASSAY - IC50) of 3.29 µM and an IC90 of 3.69 µM.
`Cn1ccnc1C(=O)NNc1ncc(C(F)(F)F)cc1Cl` gave an IC50 (HEPG2TOX_HILL_SLOPE 1.64, HEPG2TOX_R_SQUARED 0.948, PBLUC_HILL_SLOPE 15.2, PBLUC_R_SQUARED 0.698, read-out: LUCIFERASE INFECTION ASSAY - IC50) of 1.04 µM and an IC90 of 1.21 µM.
